Laboratory results as given in PubChem BioAssay (NCI).
Where “and” joins values, the source holds several entries; their conditions need not be identical. Equal values may be shown once.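 Each compound was tested at five concentrations against cells in 96-well plates for 48 hours. Here, GI50 denotes the concentration required for 50% inhibition of growth. The concentration for full growth arrest is given as TGI.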

Key:
Test in all cases: NCI tumour cell line growth inhibition, 48 h
SK-MEL-5 melanoma = system: SK-MEL-5 melanoma
NCI-H226 lung = system: NCI-H226 lung
U251 CNS = system: U251 CNS
UACC-257 melanoma = system: UACC-257 melanoma
OVCAR-5 ovarian = system: OVCAR-5 ovarian
CCRF-CEM leukemia = system: CCRF-CEM leukemia
786-0 renal = system: 786-0 renal
HT29 colon = system: HT29 colon
MDA-MB-231 breast = system: MDA-MB-231 breast
MCF7 breast = system: MCF7 breast

O=C(NCCCCCCNC(=O)OCc1ccc2c(Cl)cc(Cl)c(O)c2n1)OCc1ccc2c(Cl)cc(Cl)c(O)c2n1
GI50 (SK-MEL-5 melanoma): 1.54 µM | TGI (SK-MEL-5 melanoma): 2.88 µM | GI50 (NCI-H226 lung): 1.07 µM | TGI (NCI-H226 lung): 2.54 µM | GI50 (U251 CNS): 1.44 µM | TGI (U251 CNS): 2.92 µM | GI50 (UACC-257 melanoma): 1.3 µM | TGI (UACC-257 melanoma): 2.77 µM | GI50 (OVCAR-5 ovarian): 1.5 µM | TGI (OVCAR-5 ovarian): 3.01 µM | GI50 (CCRF-CEM leukemia): 0.311 µM | GI50 (786-0 renal): 1.28 µM | TGI (786-0 renal): 2.67 µM | GI50 (HT29 colon): 0.565 µM | TGI (HT29 colon): 2.23 µM | GI50 (MDA-MB-231 breast): 1.17 µM | TGI (MDA-MB-231 breast): 2.49 µM

c1ccc2c(c1)[nH]c1c2ncc2[nH]c3ccccc3c21
TGI (SK-MEL-5 melanoma): 17.2 µM | TGI (NCI-H226 lung): 49.1 µM | TGI (U251 CNS): 5.64 µM | TGI (OVCAR-5 ovarian): 22.9 µM | TGI (CCRF-CEM leukemia): 9.45 µM | TGI (786-0 renal): 5.61 µM | TGI (HT29 colon): 11.1 µM

CNC(=O)CN1CCC(Oc2cc3c(Nc4cccc(Cl)c4F)ncnc3cc2OC)CC1
GI50 (SK-MEL-5 melanoma): 13.4 µM and 4.49 µM | TGI (SK-MEL-5 melanoma): 26.5 µM and > 10 µM | GI50 (NCI-H226 lung): 13.9 µM and > 6.23 µM | TGI (NCI-H226 lung): 42.1 µM and > 10 µM | GI50 (U251 CNS): 17 µM and > 6.47 µM | TGI (U251 CNS): 45.9 µM and > 10 µM | GI50 (UACC-257 melanoma): 13.7 µM and > 10 µM | TGI (UACC-257 melanoma): 29.2 µM and > 10 µM | GI50 (OVCAR-5 ovarian): 1.9 µM and 1.56 µM | TGI (OVCAR-5 ovarian): 22.4 µM and > 10 µM | GI50 (CCRF-CEM leukemia): 24.6 µM and > 5.76 µM | TGI (CCRF-CEM leukemia): 81 µM and > 10 µM | GI50 (MCF7 breast): 13.8 µM and > 5 µM | TGI (MCF7 breast): > 74.5 µM | GI50 (786-0 renal): 5.28 µM and 5.31 µM | TGI (786-0 renal): 27.8 µM and > 10 µM | GI50 (HT29 colon): 11.6 µM and > 7.06 µM | TGI (HT29 colon): 32.6 µM and > 10 µM | GI50 (MDA-MB-231 breast): 5.9 µM and 4.18 µM | TGI (MDA-MB-231 breast): 20.7 µM and > 10 µM

CCCCCCCCCCCCCCCCCC[N+](C)(C)Cc1ccc(C[N+](C)(C)CCCCCCCCCCCCCCCCCC)cc1
TGI (SK-MEL-5 melanoma): 66.6 µM | TGI (NCI-H226 lung): 41.5 µM | TGI (U251 CNS): 56.2 µM | TGI (UACC-257 melanoma): 34 µM | TGI (OVCAR-5 ovarian): 96.7 µM | TGI (CCRF-CEM leukemia): 44.1 µM | TGI (786-0 renal): 39.1 µM | TGI (HT29 colon): 38.6 µM

CSC1(CC(=O)N2CCCCC2)C(=O)Nc2ccccc21 (stereo unspecified)
TGI (SK-MEL-5 melanoma): > 100 µM | TGI (NCI-H226 lung): > 100 µM | TGI (U251 CNS): > 100 µM | TGI (UACC-257 melanoma): > 100 µM | TGI (OVCAR-5 ovarian): > 100 µM | TGI (MCF7 breast): > 100 µM | TGI (786-0 renal): > 100 µM | TGI (HT29 colon): > 100 µM

FC(F)(F)c1nc(-c2ccccc2)oc1Sc1oc(-c2ccccc2)nc1C(F)(F)F
TGI (SK-MEL-5 melanoma): > 100 µM | TGI (NCI-H226 lung): > 100 µM | TGI (U251 CNS): > 100 µM | TGI (UACC-257 melanoma): > 100 µM | TGI (OVCAR-5 ovarian): > 100 µM | TGI (CCRF-CEM leukemia): > 100 µM | TGI (786-0 renal): > 100 µM | TGI (HT29 colon): > 100 µM

Cc1c(CC/C(=N\Nc2ccc([N+](=O)[O-])cc2[N+](=O)[O-])c2ccccc2)c2ccccc2n1C
TGI (SK-MEL-5 melanoma): > 100 µM | TGI (NCI-H226 lung): > 100 µM | TGI (U251 CNS): > 100 µM | TGI (UACC-257 melanoma): > 100 µM | TGI (OVCAR-5 ovarian): > 100 µM | TGI (CCRF-CEM leukemia): > 66.6 µM | TGI (786-0 renal): > 100 µM | TGI (HT29 colon): > 100 µM

COc1ccc(C2CC(=O)c3c(O)c(OC)c(OC)c(OC)c3O2)cc1O (stereo unspecified)
GI50 (SK-MEL-5 melanoma): 0.219 µM | TGI (SK-MEL-5 melanoma): 6.87 µM | GI50 (NCI-H226 lung): 14.1 µM | TGI (NCI-H226 lung): > 100 µM | GI50 (U251 CNS): 0.191 µM | TGI (U251 CNS): > 100 µM | GI50 (OVCAR-5 ovarian): > 100 µM | TGI (OVCAR-5 ovarian): > 100 µM | GI50 (CCRF-CEM leukemia): 0.115 µM | TGI (CCRF-CEM leukemia): > 100 µM | GI50 (MCF7 breast): 0.124 µM | TGI (MCF7 breast): > 100 µM | GI50 (786-0 renal): 1.64 µM | TGI (786-0 renal): > 100 µM | GI50 (HT29 colon): 3.4 µM | TGI (HT29 colon): > 64.5 µM | GI50 (MDA-MB-231 breast): 0.625 µM | TGI (MDA-MB-231 breast): > 100 µM

Cc1ccccc1NC(=O)c1ccc([N+](=O)[O-])cc1
TGI (SK-MEL-5 melanoma): > 100 µM | TGI (NCI-H226 lung): > 100 µM | TGI (U251 CNS): > 100 µM | TGI (UACC-257 melanoma): > 100 µM | TGI (OVCAR-5 ovarian): > 100 µM | TGI (CCRF-CEM leukemia): > 100 µM | TGI (786-0 renal): > 100 µM | TGI (HT29 colon): > 100 µM

CCCN1C(=O)CNC(=O)c2[nH]cnc21
TGI (SK-MEL-5 melanoma): > 100 µM | TGI (NCI-H226 lung): > 100 µM | TGI (U251 CNS): > 100 µM | TGI (UACC-257 melanoma): > 100 µM | TGI (OVCAR-5 ovarian): > 100 µM | TGI (CCRF-CEM leukemia): > 100 µM | TGI (786-0 renal): > 100 µM | TGI (HT29 colon): > 100 µM

Fc1cccc(-c2[nH]nc3nc(Nc4cccnc4)sc23)c1
GI50 (SK-MEL-5 melanoma): 0.593 µM | TGI (SK-MEL-5 melanoma): 23.9 µM | GI50 (NCI-H226 lung): > 100 µM | TGI (NCI-H226 lung): > 100 µM | GI50 (U251 CNS): 1.01 µM | TGI (U251 CNS): > 100 µM | GI50 (UACC-257 melanoma): > 100 µM | TGI (UACC-257 melanoma): > 100 µM | GI50 (OVCAR-5 ovarian): > 100 µM | TGI (OVCAR-5 ovarian): > 100 µM | GI50 (CCRF-CEM leukemia): 3.5 µM | TGI (CCRF-CEM leukemia): > 100 µM | GI50 (MCF7 breast): 0.708 µM | TGI (MCF7 breast): > 100 µM | GI50 (786-0 renal): > 100 µM | TGI (786-0 renal): > 100 µM | GI50 (MDA-MB-231 breast): 35.2 µM | TGI (MDA-MB-231 breast): > 100 µM

COC(=O)C1=C(C)N(NC(N)=O)C(C)(O)C12CCOC2=O (stereo unspecified)
TGI (NCI-H226 lung): > 100 µM | TGI (U251 CNS): > 100 µM | TGI (UACC-257 melanoma): > 100 µM | TGI (OVCAR-5 ovarian): > 100 µM | TGI (CCRF-CEM leukemia): > 100 µM | TGI (786-0 renal): > 100 µM | TGI (HT29 colon): > 100 µM

c1ccc2c3c(ccc2c1)-c1c(ccc2c(NCCCCN4CCCCC4)cccc12)C3
GI50 (SK-MEL-5 melanoma): 11 µM | TGI (SK-MEL-5 melanoma): 26.7 µM | GI50 (U251 CNS): 1.77 µM | TGI (U251 CNS): 3.16 µM | GI50 (UACC-257 melanoma): 1.89 µM | TGI (UACC-257 melanoma): 4.92 µM | GI50 (OVCAR-5 ovarian): 1.31 µM | TGI (OVCAR-5 ovarian): 2.88 µM | GI50 (MCF7 breast): 10.8 µM | TGI (MCF7 breast): 30.3 µM | GI50 (786-0 renal): 1.76 µM | TGI (786-0 renal): 3.14 µM | GI50 (MDA-MB-231 breast): 0.599 µM | TGI (MDA-MB-231 breast): 2.21 µM

COC1CC(OC)C(O)C(CO)O1 (stereo unspecified)
TGI (SK-MEL-5 melanoma): > 100 µM | TGI (U251 CNS): > 100 µM | TGI (UACC-257 melanoma): > 100 µM | TGI (OVCAR-5 ovarian): > 100 µM | TGI (CCRF-CEM leukemia): > 100 µM | TGI (786-0 renal): > 100 µM | TGI (HT29 colon): > 100 µM

O=C(C=Nc1ccccc1C(=O)[O-])c1cccs1.O=C(C=Nc1ccccc1C(=O)[O-])c1cccs1.[Zn+2]
TGI (U251 CNS): 35.5 µM | TGI (UACC-257 melanoma): 43 µM | TGI (OVCAR-5 ovarian): 71.9 µM | TGI (CCRF-CEM leukemia): 65.3 µM | TGI (786-0 renal): > 100 µM | TGI (HT29 colon): > 100 µM

COc1ccc(C2C3=C(COC3=O)Oc3cc4c(cc32)OCO4)cc1 (stereo unspecified)
TGI (SK-MEL-5 melanoma): > 100 µM | TGI (U251 CNS): > 100 µM | TGI (UACC-257 melanoma): > 100 µM | TGI (CCRF-CEM leukemia): > 100 µM | TGI (786-0 renal): > 100 µM | TGI (HT29 colon): 22.5 µM

Cc1ccc(NC(=O)CC2C(=O)Nc3ccccc3S2=O)c(C)c1 (stereo unspecified)
TGI (SK-MEL-5 melanoma): 38.1 µM | TGI (NCI-H226 lung): 51.6 µM | TGI (U251 CNS): 27 µM | TGI (UACC-257 melanoma): > 100 µM | TGI (OVCAR-5 ovarian): > 100 µM | TGI (CCRF-CEM leukemia): 67 µM | TGI (786-0 renal): 33.4 µM | TGI (HT29 colon): 20.4 µM

O=C(O)[C@@H](NS(=O)(=O)c1ccc([N+](=O)[O-])cc1)c1ccccc1
TGI (SK-MEL-5 melanoma): > 100 µM | TGI (NCI-H226 lung): > 100 µM | TGI (U251 CNS): > 100 µM | TGI (UACC-257 melanoma): > 100 µM | TGI (OVCAR-5 ovarian): > 100 µM | TGI (CCRF-CEM leukemia): > 100 µM | TGI (786-0 renal): > 100 µM | TGI (HT29 colon): > 100 µM

c1ccc2c(CNCCCCCCCCCCCCNCc3cccc4ccccc34)cccc2c1
TGI (SK-MEL-5 melanoma): 3.27 µM | TGI (NCI-H226 lung): 4.57 µM | TGI (U251 CNS): 3.17 µM | TGI (UACC-257 melanoma): 3.17 µM | TGI (OVCAR-5 ovarian): 2.94 µM | TGI (CCRF-CEM leukemia): 3.2 µM | TGI (786-0 renal): 3.23 µM | TGI (HT29 colon): 3.03 µM

O=c1ccnc(SCc2ccc(Cl)cc2)[nH]1
TGI (SK-MEL-5 melanoma): > 100 µM | TGI (U251 CNS): > 100 µM | TGI (UACC-257 melanoma): > 100 µM | TGI (OVCAR-5 ovarian): > 100 µM | TGI (CCRF-CEM leukemia): > 100 µM | TGI (MCF7 breast): > 100 µM | TGI (786-0 renal): > 100 µM | TGI (HT29 colon): > 100 µM | TGI (MDA-MB-231 breast): > 100 µM
